Laboratory results from the supplement of paper PMC9013687.

Columns and labels:
Danio rerio embryo [1] = test: spontaneous tail coiling frequency (coils/min/embryo); higher = more spontaneous movement; conditions: 25 hpf
Method: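 Spontaneous tail coilings of zebrafish embryos exposed from 2 hpf were recorded at 24-25 hpf in 1-min videos and detected by a KNIME workflow from grey-value variance. Betamethasone was tested as the dipropionate, diflorasone as the diacetate.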

Danio rerio embryo [2] = test: EC10 Lack of SB; higher = less potent; conditions: exposure time: 4 dpf
Method: (§1)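 Zebrafish embryos (UFZ-OBI strain) were exposed from 2 hpf for 48 h (2 dpf) or 96 h (4 dpf) at 28 °C; spontaneous tail coiling was scored at 25 hpf. Morphological features from automated image analysis (FishInspector), heart rate and locomotor response were fitted with drc models. Quantal endpoints were dichotomised at 2.5 SD from controls and fitted with a log-logistic model; heart rate, pigmentation and STC were normalised to the replicate control mean. Betamethasone was tested as betamethasone dipropionate, diflorasone as diflorasone diacetate.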

Danio rerio embryo [3] = test: EC50 Pericard size_Increase
Method: as §1

Danio rerio embryo [4] = test: EC10 Bladder size_Decrease; higher = less potent; conditions: exposure time: 4 dpf
Method: as §1

Danio rerio embryo [5] = test: EC10 Pericard size_Increase; higher = less potent
Method: as §1

Danio rerio embryo [6] = test: EC20 Lack of SB; higher = less potent; conditions: exposure time: 4 dpf
Method: as §1

Danio rerio embryo [7] = test: EC20 Bladder size_Decrease; higher = less potent; conditions: exposure time: 4 dpf
Method: as §1

Danio rerio embryo [8] = test: EC20 Pericard size_Increase; higher = less potent
Method: as §1

Danio rerio embryo [9] = conditions: exposure time: 4 dpf
Method: as §1

Danio rerio embryo [10] = test: EC50 Bladder size_Decrease; conditions: exposure time: 4 dpf
Method: as §1

Danio rerio embryo [11] = test: EC10 Eye-jaw distance_Decrease; higher = less potent; conditions: exposure time: 4 dpf
Method: as §1

Danio rerio embryo [12] = test: EC20 Eye-jaw distance_Decrease; higher = less potent; conditions: exposure time: 4 dpf
Method: as §1

Danio rerio embryo [13] = test: EC50 Eye-jaw distance_Decrease; conditions: exposure time: 4 dpf
Method: as §1

Danio rerio embryo [14] = tested on: Danio rerio embryo
Method: as §1

Danio rerio embryo [15] = tested on: Danio rerio embryo; remark: listed apart in the source
Method: as §1

Danio rerio embryo [16] = conditions: exposure time: 4 dpf; remark: listed apart in the source
Method: as §1

Danio rerio embryo [17] = test: EC20 LMR dark; higher = less potent; conditions: exposure time: 4 dpf
Method: as §1

Danio rerio embryo [18] = test: EC10 Any effect; higher = less potent
Method: as §1

Danio rerio embryo [19] = test: EC20 Any effect; higher = less potent
Method: as §1

Danio rerio embryo [20] = test: EC50 Yolk sac size_Increase; conditions: exposure time: 4 dpf
Method: as §1

Danio rerio embryo [21] = test: EC50 Eye size_Decrease; conditions: exposure time: 2 dpf
Method: as §1

Danio rerio embryo [22] = test: EC10 Yolk sac size_Increase; higher = less potent; conditions: exposure time: 4 dpf
Method: as §1

Danio rerio embryo [23] = test: EC10 Eye size_Decrease; higher = less potent; conditions: exposure time: 2 dpf
Method: as §1

Danio rerio embryo [24] = test: EC10 LMR dark; higher = less potent; conditions: exposure time: 4 dpf
Method: as §1

Danio rerio embryo [25] = test: EC10 Curvature_Increase; higher = less potent; conditions: exposure time: 2 dpf
Method: as §1

Danio rerio embryo [26] = test: EC20 Eye size_Decrease; higher = less potent; conditions: exposure time: 2 dpf
Method: as §1

Danio rerio embryo [27] = test: EC20 Yolk sac size_Increase; higher = less potent; conditions: exposure time: 4 dpf
Method: as §1

Danio rerio embryo [28] = test: EC20 Heart rate; higher = less potent
Method: as §1

Danio rerio embryo [29] = test: EC10 Pigmentation increase; higher = less potent; conditions: exposure time: 4 dpf
Method: as §1

Danio rerio embryo [30] = test: EC20 Pigmentation increase; higher = less potent; conditions: exposure time: 4 dpf
Method: as §1

Danio rerio embryo [31] = test: EC50 Curvature_Increase; conditions: exposure time: 2 dpf
Method: as §1

Danio rerio embryo [32] = test: EC20 Body length_Decrease; higher = less potent
Method: as §1

Danio rerio embryo [33] = test: EC50 Body length_Decrease
Method: as §1

Danio rerio embryo [34] = test: EC10 Heart rate; higher = less potent
Method: as §1

Danio rerio embryo [35] = test: EC20 Curvature_Increase; higher = less potent; conditions: exposure time: 2 dpf
Method: as §1

Danio rerio embryo [36] = test: EC10 Body length_Decrease; higher = less potent
Method: as §1

CC(=O)OCC(=O)[C@@]1(OC(C)=O)[C@@H](C)C[C@H]2[C@@H]3C[C@H](F)C4=CC(=O)C=C[C@]4(C)[C@@]3(F)[C@@H](O)C[C@@]21C [diflorasone diacetate]
Conditions	EC10 Pericard size Increase [µM]	EC20 Pericard size Increase [µM]	EC50 Pericard size Increase [µM]	spontaneous tail coiling frequency
Danio rerio embryo [1], 0.63 µM	–	–	–	2.46
Danio rerio embryo [1], 1.2 µM	–	–	–	2.87
Danio rerio embryo [1], 1.26 µM	–	–	–	2.52
Danio rerio embryo [1], 2 µM	–	–	–	2.33
Danio rerio embryo [1], 2.5 µM	–	–	–	2.17
Danio rerio embryo [1], 3 µM	–	–	–	1.89
Danio rerio embryo [1], 4 µM	–	–	–	2.36
Danio rerio embryo [1], 6 µM	–	–	–	2.7
Danio rerio embryo [1], 10.1 µM	–	–	–	1.56
Danio rerio embryo [3], exposure time: 4 dpf	–	–	2.08	–
Danio rerio embryo [5], exposure time: 4 dpf	0.025	–	–	–
Danio rerio embryo [8], exposure time: 4 dpf	–	0.127	–	–

Conditions	EC10 Bladder size Decrease [µM]	EC10 Eye-jaw distance Decrease [µM]	EC10 Lack of SB [µM]	EC20 Bladder size Decrease [µM]	EC20 Eye-jaw distance Decrease [µM]	EC20 Lack of SB [µM]	EC50 Bladder size Decrease [µM]	EC50 Eye-jaw distance Decrease [µM]	EC50 Lack of SB [µM]
Danio rerio embryo [2]	–	–	0.045	–	–	–	–	–	–
Danio rerio embryo [4]	0.037	–	–	–	–	–	–	–	–
Danio rerio embryo [6]	–	–	–	–	–	0.099	–	–	–
Danio rerio embryo [7]	–	–	–	0.066	–	–	–	–	–
Danio rerio embryo [9]	–	–	–	–	–	–	–	–	0.379
Danio rerio embryo [10]	–	–	–	–	–	–	0.176	–	–
Danio rerio embryo [11]	–	0.004	–	–	–	–	–	–	–
Danio rerio embryo [12]	–	–	–	–	0.041	–	–	–	–
Danio rerio embryo [13]	–	–	–	–	–	–	–	2.38	–

CC1(C)OC(=O)C(OCC2CC2)=C1c1ccc(S(C)(=O)=O)cc1 [Firocoxib]
Conditions	EC10 Any effect [µM]	EC10 Body length Decrease [µM]	EC10 Heart rate [µM]	EC10 Pericard size Increase [µM]	EC20 Any effect [µM]	EC20 Body length Decrease [µM]	EC20 Heart rate [µM]	EC20 Pericard size Increase [µM]	EC50 Any effect [µM]	EC50 Body length Decrease [µM]	EC50 Heart rate [µM]	EC50 Pericard size Increase [µM]	spontaneous tail coiling frequency
Danio rerio embryo [1], 14.9 µM	–	–	–	–	–	–	–	–	–	–	–	–	2.83
Danio rerio embryo [1], 29.7 µM	–	–	–	–	–	–	–	–	–	–	–	–	2.54
Danio rerio embryo [1], 59.4 µM	–	–	–	–	–	–	–	–	–	–	–	–	3.5
Danio rerio embryo [1], 59.5 µM	–	–	–	–	–	–	–	–	–	–	–	–	2.46
Danio rerio embryo [1], 89.2 µM	–	–	–	–	–	–	–	–	–	–	–	–	2.31
Danio rerio embryo [1], 104 µM	–	–	–	–	–	–	–	–	–	–	–	–	3
Danio rerio embryo [1], 133.8 µM	–	–	–	–	–	–	–	–	–	–	–	–	3.06
Danio rerio embryo [3], exposure time: 2 dpf	–	–	–	–	–	–	–	–	–	–	–	108	–
Danio rerio embryo [5], exposure time: 2 dpf	–	–	–	40.6	–	–	–	–	–	–	–	–	–
Danio rerio embryo [8], exposure time: 2 dpf	–	–	–	–	–	–	–	58.3	–	–	–	–	–
Danio rerio embryo [14], exposure time: 2 dpf	–	–	–	–	–	–	–	–	121	–	–	–	–
Danio rerio embryo [14], exposure time: 4 dpf	–	–	–	–	–	–	–	–	147	–	–	–	–
Danio rerio embryo [15], exposure time: 2 dpf	–	–	–	–	–	–	–	–	–	–	181	–	–
Danio rerio embryo [15], exposure time: 4 dpf	–	–	–	–	–	–	–	–	–	–	56.2	–	–
Danio rerio embryo [18], exposure time: 2 dpf	55.3	–	–	–	–	–	–	–	–	–	–	–	–
Danio rerio embryo [18], exposure time: 4 dpf	62.1	–	–	–	–	–	–	–	–	–	–	–	–
Danio rerio embryo [19], exposure time: 2 dpf	–	–	–	–	73.7	–	–	–	–	–	–	–	–
Danio rerio embryo [19], exposure time: 4 dpf	–	–	–	–	85.4	–	–	–	–	–	–	–	–
Danio rerio embryo [28], exposure time: 2 dpf	–	–	–	–	–	–	113	–	–	–	–	–	–
Danio rerio embryo [28], exposure time: 4 dpf	–	–	–	–	–	–	38.8	–	–	–	–	–	–
Danio rerio embryo [32], exposure time: 2 dpf	–	–	–	–	–	82.7	–	–	–	–	–	–	–
Danio rerio embryo [32], exposure time: 4 dpf	–	–	–	–	–	94.5	–	–	–	–	–	–	–
Danio rerio embryo [33], exposure time: 2 dpf	–	–	–	–	–	–	–	–	–	109	–	–	–
Danio rerio embryo [33], exposure time: 4 dpf	–	–	–	–	–	–	–	–	–	113	–	–	–
Danio rerio embryo [34], exposure time: 2 dpf	–	–	86.2	–	–	–	–	–	–	–	–	–	–
Danio rerio embryo [34], exposure time: 4 dpf	–	–	31.2	–	–	–	–	–	–	–	–	–	–
Danio rerio embryo [36], exposure time: 2 dpf	–	70.3	–	–	–	–	–	–	–	–	–	–	–
Danio rerio embryo [36], exposure time: 4 dpf	–	85	–	–	–	–	–	–	–	–	–	–	–

Conditions	EC10 Bladder size Decrease [µM]	EC10 Curvature Increase [µM]	EC10 Eye size Decrease [µM]	EC10 Eye-jaw distance Decrease [µM]	EC10 LMR dark [µM]	EC10 Lack of SB [µM]	EC10 Pigmentation increase [µM]	EC10 Yolk sac size Increase [µM]	EC20 Bladder size Decrease [µM]	EC20 Curvature Increase [µM]	EC20 Eye size Decrease [µM]	EC20 Eye-jaw distance Decrease [µM]	EC20 LMR dark [µM]	EC20 Lack of SB [µM]	EC20 Pigmentation increase [µM]	EC20 Yolk sac size Increase [µM]	EC50 Bladder size Decrease [µM]	EC50 Curvature Increase [µM]	EC50 Eye size Decrease [µM]	EC50 Eye-jaw distance Decrease [µM]	EC50 LMR dark [µM]	EC50 Lack of SB [µM]	EC50 Yolk sac size Increase [µM]
Danio rerio embryo [2]	–	–	–	–	–	34.7	–	–	–	–	–	–	–	–	–	–	–	–	–	–	–	–	–
Danio rerio embryo [4]	31.5	–	–	–	–	–	–	–	–	–	–	–	–	–	–	–	–	–	–	–	–	–	–
Danio rerio embryo [6]	–	–	–	–	–	–	–	–	–	–	–	–	–	43.7	–	–	–	–	–	–	–	–	–
Danio rerio embryo [7]	–	–	–	–	–	–	–	–	39	–	–	–	–	–	–	–	–	–	–	–	–	–	–
Danio rerio embryo [9]	–	–	–	–	–	–	–	–	–	–	–	–	–	–	–	–	–	–	–	–	–	64.6	–
Danio rerio embryo [10]	–	–	–	–	–	–	–	–	–	–	–	–	–	–	–	–	56.3	–	–	–	–	–	–
Danio rerio embryo [11]	–	–	–	79.2	–	–	–	–	–	–	–	–	–	–	–	–	–	–	–	–	–	–	–
Danio rerio embryo [12]	–	–	–	–	–	–	–	–	–	–	–	93.2	–	–	–	–	–	–	–	–	–	–	–
Danio rerio embryo [13]	–	–	–	–	–	–	–	–	–	–	–	–	–	–	–	–	–	–	–	123	–	–	–
Danio rerio embryo [16]	–	–	–	–	–	–	–	–	–	–	–	–	–	–	–	–	–	–	–	–	53.7	–	–
Danio rerio embryo [17]	–	–	–	–	–	–	–	–	–	–	–	–	22.9	–	–	–	–	–	–	–	–	–	–
Danio rerio embryo [20]	–	–	–	–	–	–	–	–	–	–	–	–	–	–	–	–	–	–	–	–	–	–	128
Danio rerio embryo [21]	–	–	–	–	–	–	–	–	–	–	–	–	–	–	–	–	–	–	128	–	–	–	–
Danio rerio embryo [22]	–	–	–	–	–	–	–	48.1	–	–	–	–	–	–	–	–	–	–	–	–	–	–	–
Danio rerio embryo [23]	–	–	77.4	–	–	–	–	–	–	–	–	–	–	–	–	–	–	–	–	–	–	–	–
Danio rerio embryo [24]	–	–	–	–	13.9	–	–	–	–	–	–	–	–	–	–	–	–	–	–	–	–	–	–
Danio rerio embryo [25]	–	74.2	–	–	–	–	–	–	–	–	–	–	–	–	–	–	–	–	–	–	–	–	–
Danio rerio embryo [26]	–	–	–	–	–	–	–	–	–	–	93.3	–	–	–	–	–	–	–	–	–	–	–	–
Danio rerio embryo [27]	–	–	–	–	–	–	–	–	–	–	–	–	–	–	–	68.9	–	–	–	–	–	–	–
Danio rerio embryo [29]	–	–	–	–	–	–	83	–	–	–	–	–	–	–	–	–	–	–	–	–	–	–	–
Danio rerio embryo [30]	–	–	–	–	–	–	–	–	–	–	–	–	–	–	100	–	–	–	–	–	–	–	–
Danio rerio embryo [31]	–	–	–	–	–	–	–	–	–	–	–	–	–	–	–	–	–	109	–	–	–	–	–
Danio rerio embryo [35]	–	–	–	–	–	–	–	–	–	85.4	–	–	–	–	–	–	–	–	–	–	–	–	–
